From ChEMBL document CHEMBL3045054, “Synthesis and insecticidal activity of novel 1-alkyl-3-sulfonyloxypyrazole-4-carboxamide derivatives” (2010)

Assays:
Type in all cases: functional
Tetranychus urticae [1] = experiment: Insecticidal activity against Tetranychus urticae (two-spotted spider mite) in compound treated kidney bean leaf disk assessed as mortality at 62.5 ppm measured after 7 days; settings: foliar, 168 h
Nephotettix cincticeps [2] = experiment: Insecticidal activity against Nephotettix cincticeps (green rice leafhopper) third instar larvae in compound treated rice seedlings assessed as mortality at 62.5 ppm measured after 7 days; settings: 168 h
Tetranychus urticae [3] = experiment: Insecticidal activity against Tetranychus urticae (two-spotted spider mite) eggs in compound treated kidney bean leaf disk assessed as ovicidal at 62.5 ppm measured after 7 days; settings: foliar, 168 h
Nephotettix cincticeps [4] = experiment: Insecticidal activity against Nephotettix cincticeps (green rice leafhopper) third instar larvae in compound treated rice seedlings assessed as mortality at 3.1 ppm measured after 7 days; settings: 168 h
Tetranychus urticae [5] = experiment: Insecticidal activity against Tetranychus urticae (two-spotted spider mite) in compound treated kidney bean leaf disk assessed as mortality at 3.1 ppm measured after 7 days; settings: foliar, 168 h
Tetranychus urticae [6] = experiment: Insecticidal activity against Tetranychus urticae (two-spotted spider mite) eggs in compound treated kidney bean leaf disk assessed as ovicidal at 3.1 ppm measured after 7 days; settings: foliar, 168 h
Nephotettix cincticeps [7] = experiment: Insecticidal activity against Nephotettix cincticeps (green rice leafhopper) third instar larvae in compound treated rice seedlings assessed as mortality at 1.3 ppm measured after 7 days; settings: 168 h
Tetranychus urticae [8] = experiment: Insecticidal activity against Tetranychus urticae (two-spotted spider mite) in compound treated kidney bean leaf disk assessed as mortality at 500 ppm measured after 7 days; settings: foliar, 168 h
Tetranychus urticae [9] = experiment: Insecticidal activity against Tetranychus urticae (two-spotted spider mite) eggs in compound treated kidney bean leaf disk assessed as ovicidal at 500 ppm measured after 7 days; settings: foliar, 168 h
Nephotettix cincticeps [10] = experiment: Insecticidal activity against Nephotettix cincticeps (green rice leafhopper) third instar larvae in compound treated rice seedlings assessed as mortality at 500 ppm measured after 7 days; settings: 168 h
Tetranychus urticae [11] = experiment: Insecticidal activity against Tetranychus urticae (two-spotted spider mite) eggs in compound treated kidney bean leaf disk assessed as ovicidal at 1.3 ppm measured after 7 days; settings: foliar, 168 h
Tetranychus urticae [12] = experiment: Insecticidal activity against Tetranychus urticae (two-spotted spider mite) in compound treated kidney bean leaf disk assessed as mortality at 1.3 ppm measured after 7 days; settings: foliar, 168 h

Row | Compound | mortality at 62.5 ppm (Tetranychus urticae [1]) | mortality at 62.5 ppm (Nephotettix cincticeps [2]) | mortality at 62.5 ppm (Tetranychus urticae [3]) | mortality at 3.1 ppm (Nephotettix cincticeps [4]) | mortality at 3.1 ppm (Tetranychus urticae [5]) | mortality at 3.1 ppm (Tetranychus urticae [6]) | mortality at 1.3 ppm (Nephotettix cincticeps [7]) | mortality at 500 ppm (Tetranychus urticae [8]) | mortality at 500 ppm (Tetranychus urticae [9]) | mortality at 500 ppm (Nephotettix cincticeps [10]) | mortality at 1.3 ppm (Tetranychus urticae [11]) | mortality at 1.3 ppm (Tetranychus urticae [12])
1 | Cn1cc(C(=O)NCC(F)(F)F)c(OS(C)(=O)=O)n1 | 86% | 22% | 61% | – | – | – | – | – | – | – | – | –
2 | CCCC(C#N)(CC)NC(=O)c1cn(C)nc1OS(C)(=O)=O (stereo not given) | 15% | 22% | 39% | – | – | – | – | – | – | – | – | –
3 | Cn1cc(C(=O)NC2(C#N)CCCCC2)c(OS(C)(=O)=O)n1 | 93% | 50% | 20% | – | – | – | – | – | – | – | – | –
4 | CCC(C#N)(CC)NC(=O)c1cn(C)nc1OS(C)(=O)=O | 100% | 100% | 100% | 55% | 100% | 100% | – | – | – | – | – | –
5 | CC(C)C(C)(C#N)NC(=O)c1cn(C)nc1OS(C)(=O)=O (stereo not given) | 100% | 100% | 100% | 32% | 11% | 26% | – | – | – | – | – | –
6 | CCC(C)(C#N)NC(=O)c1cn(C)nc1OS(C)(=O)=O (stereo not given) | 100% | 100% | 100% | 88% | 15% | 9% | – | – | – | – | – | –
7 | CCCC(C)(C#N)NC(=O)c1cn(C)nc1OS(C)(=O)=O (stereo not given) | 64% | 100% | 67% | 81% | 8% | 3% | – | – | – | – | – | –
8 | CCC(C#N)NC(=O)c1cn(C)nc1OS(C)(=O)=O (stereo not given) | 100% | 100% | 94% | 10% | 7% | 3% | – | – | – | – | – | –
9 | Cn1cc(C(=O)NCC#N)c(OS(C)(=O)=O)n1 | 100% | 47% | 100% | – | 8% | 8% | – | – | – | – | – | –
10 | CC(NC(=O)c1cn(C)nc1OS(C)(=O)=O)c1ccccc1 (stereo not given) | 0% | 81% | 0% | – | – | – | – | – | – | – | – | –
11 | CCCCCC(C)NC(=O)c1cn(C)nc1OS(C)(=O)=O (stereo not given) | 29% | 94% | 6% | 8% | – | – | – | – | – | – | – | –
12 | CCC(CC)NC(=O)c1cn(C)nc1OS(C)(=O)=O | 100% | 100% | 19% | 65% | 10% | – | – | – | – | – | – | –
13 | Cn1cc(C(=O)NC(C)(C)C)c(OS(C)(=O)=O)n1 | 23% | 100% | 3% | 80% | – | – | – | – | – | – | – | –
14 | CCCC(C)NC(=O)c1cn(C)nc1OS(C)(=O)=O (stereo not given) | 94% | 100% | 44% | 95% | 7% | 6% | – | – | – | – | – | –
15 | CC(C)CNC(=O)c1cn(C)nc1OS(C)(=O)=O | 89% | 100% | 12% | 100% | – | – | 97% | – | – | – | – | –
16 | Cn1cc(C(=O)NC2CC2)c(OS(C)(=O)=O)n1 | 21% | 97% | 9% | 10% | – | – | – | – | – | – | – | –

Row | Compound | mortality at 62.5 ppm (Tetranychus urticae [1]) | mortality at 62.5 ppm (Nephotettix cincticeps [2]) | mortality at 62.5 ppm (Tetranychus urticae [3]) | mortality at 3.1 ppm (Nephotettix cincticeps [4]) | mortality at 3.1 ppm (Tetranychus urticae [5]) | mortality at 3.1 ppm (Tetranychus urticae [6]) | mortality at 1.3 ppm (Nephotettix cincticeps [7]) | mortality at 500 ppm (Tetranychus urticae [8]) | mortality at 500 ppm (Tetranychus urticae [9]) | mortality at 500 ppm (Nephotettix cincticeps [10]) | mortality at 1.3 ppm (Tetranychus urticae [11]) | mortality at 1.3 ppm (Tetranychus urticae [12])
17 | CC(C)N(C)C(=O)c1cn(C)nc1OS(C)(=O)=O | 10% | 41% | 5% | – | – | – | – | – | – | – | – | –
18 | CCNC(=O)c1cn(C)nc1OS(C)(=O)=O | 0% | 0% | 0% | – | – | – | – | – | – | – | – | –
19 | CCCNC(=O)c1cn(C)nc1OS(C)(=O)=O | 25% | 87% | 7% | – | – | – | – | – | – | – | – | –
20 | CNC(=O)c1cn(C)nc1OS(C)(=O)=O | 19% | 20% | 4% | – | – | – | – | – | – | – | – | –
21 | CC(C)NC(=O)c1cn(C)nc1OS(=O)(=O)N(C)C | 0% | 0% | 0% | – | – | – | – | – | – | – | – | –
22 | CC(C)NC(=O)c1cn(C)nc1OS(=O)(=O)C(F)(F)F | 15% | 24% | 10% | – | – | – | – | – | – | – | – | –
23 | CC(C)NC(=O)c1cn(C)nc1OS(=O)(=O)CCl | 15% | 100% | 13% | 10% | – | – | – | – | – | – | – | –
24 | CCS(=O)(=O)Oc1nn(C)cc1C(=O)NC(C)C | 14% | 100% | 2% | 55% | – | – | – | – | – | – | – | –
25 | CCS(=O)(=O)Oc1nn(C(C)(C)C)cc1C(=O)NC(C)C | – | – | – | – | – | – | – | 50% | 0% | 0% | – | –
26 | CC(C)NC(=O)c1cn(C(C)C)nc1OS(C)(=O)=O | 50% | 100% | 47% | 74% | – | – | – | – | – | – | – | –
27 | CCCn1cc(C(=O)NC(C)C)c(OS(C)(=O)=O)n1 | 36% | 100% | 26% | 76% | – | – | – | – | – | – | – | –
28 | CCn1cc(C(=O)NC(C)C)c(OS(C)(=O)=O)n1 | 51% | 100% | 13% | 100% | – | – | – | – | – | – | – | –
29 | CC(C)NC(=O)c1cn(CCCl)nc1OS(C)(=O)=O | 80% | 100% | 34% | 96% | 15% | 30% | – | – | – | – | – | –
30 | CC(C)NC(=O)c1cn(CCF)nc1OS(C)(=O)=O | 50% | 100% | 69% | 43% | – | – | – | – | – | – | – | –
31 | CC(C)NC(=O)c1cn(C)nc1OS(C)(=O)=O | 100% | 100% | 37% | 100% | 17% | 23% | 74% | – | – | – | 22% | 16%
